We go through 38 compounds from patent EP1235797B1, “ARALKYL-1,2-DIAMINES HAVING CALCIMIMETIC ACTIVITY AND PREPARATION MODE” (CENTRE NATIONAL DE LA RECHERCHE SCIENTIFIQUE (CNRS), priority 1999, dated 2001).

Molecules are shown by their SMILES.

For one experiment, the target named is T1, CaSR de rat (Rattus norvegicus, UniProt P48442).
T1 construct: expressed in transfected cells; host or cells: CHO (Chinese hamster ovary) cells, line CHO(CaSR)
T1 sequence (P48442 20-1079): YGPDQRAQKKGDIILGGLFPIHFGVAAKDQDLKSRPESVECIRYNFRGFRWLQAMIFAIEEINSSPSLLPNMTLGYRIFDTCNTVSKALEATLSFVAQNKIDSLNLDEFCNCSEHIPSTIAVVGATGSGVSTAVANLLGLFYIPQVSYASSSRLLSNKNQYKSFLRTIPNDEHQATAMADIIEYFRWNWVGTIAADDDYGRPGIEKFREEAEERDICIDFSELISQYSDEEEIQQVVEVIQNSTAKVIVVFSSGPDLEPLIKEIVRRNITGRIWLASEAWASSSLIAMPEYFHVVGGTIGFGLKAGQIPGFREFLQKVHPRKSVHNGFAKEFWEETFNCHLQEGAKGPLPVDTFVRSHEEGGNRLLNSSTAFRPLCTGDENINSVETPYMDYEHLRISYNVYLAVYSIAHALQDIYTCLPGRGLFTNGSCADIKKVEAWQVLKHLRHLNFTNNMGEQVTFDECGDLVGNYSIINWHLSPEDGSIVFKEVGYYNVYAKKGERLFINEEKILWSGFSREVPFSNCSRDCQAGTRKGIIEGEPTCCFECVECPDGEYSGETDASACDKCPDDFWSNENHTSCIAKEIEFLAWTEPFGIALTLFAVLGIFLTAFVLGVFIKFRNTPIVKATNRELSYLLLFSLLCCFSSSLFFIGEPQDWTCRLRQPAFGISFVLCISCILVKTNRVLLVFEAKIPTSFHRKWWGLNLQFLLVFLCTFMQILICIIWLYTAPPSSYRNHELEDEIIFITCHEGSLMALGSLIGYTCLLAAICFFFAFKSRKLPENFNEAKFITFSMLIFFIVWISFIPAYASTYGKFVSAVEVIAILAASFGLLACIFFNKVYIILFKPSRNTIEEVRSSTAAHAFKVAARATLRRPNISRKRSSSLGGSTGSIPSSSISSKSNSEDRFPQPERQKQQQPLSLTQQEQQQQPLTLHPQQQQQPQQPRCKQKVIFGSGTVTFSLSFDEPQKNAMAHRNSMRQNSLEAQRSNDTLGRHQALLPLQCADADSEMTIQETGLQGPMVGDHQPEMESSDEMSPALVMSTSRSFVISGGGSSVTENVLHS
The experiment can be described thus: Accumulation of tritiated inositol phosphates ([3H]IP) in transfected CHO(CaSR) cells. In kind it is cell-based. As to conditions: compound 10 µM; for activation at 10 µM: read-out: Accumulation d'(^3H)-IP % de la réponse 10mM Ca^2+ ± E.S.; for Accumulation d'(^3H)-IP % du taux basal. CHO (CaSR) / activity at 10 µM: basal level in presence of 2 mM Ca^2+ = 100 %; for activity at 10 µM: read-out: Accumulation d'(^3H)-IP % du taux basal. CHO (CaSR). The text has this:
L'ADN complémentaire codant pour le CaSR de rat a été isolé à partir d'une banque ADNc de striatum de rat (Ruat et al, Proc. Natl. Acad. Sci., 1995). Ce récepteur est identique au niveau de sa séquence en acides aminés à celui exprimé dans les autres tissus. Des cellules ovariennes de hamster chinois (CHO) transfectées exprimant le CaSR de rat (CHO(CaSR)) ont été caractérisées et les signaux chimiques (seconds messagers) induits par l'activation de ce récepteur ont été analysés. Ainsi, un test biochimique permettant de mesurer l'accumulation d'inositols phosphates tritiés [^3H]IP en réponse à l'activation du récepteur a été mis au point (Ruat et al, J. Biol. Chem., 1996; Ferry et al, Biochem. Biophys. Res. Commun., 1997).
L'activité calcimimétique des composés a été estimée en mesurant l'accumulation d'inositols phosphates tritiés induite par 10 µM de chacun des composés en présence de 2 mM de Ca^2+ dans les cellules CHO(CaSR) (Ferry et al, Biochem Biophys Res Commun, 1997).
Cette activation a été comparée à celle induite par le composé NPS-R- 568, un calcimimétique de référence et utilisé à une concentration de 10 µM (Tableau 1) (Ferry et al, Biochem Biophys Res Commun, 1997; Nemeth et al, Proc Natl Acad Sci USA, 1997).
Dans le tableau 1, l'activité calcimimétique des composés PHD est comparée à celle d'un composé de référence, le NPS-R-568 utilisé à la même concentration et dans les mêmes conditions expérimentales. Cette activité est exprimée en pourcentage de l'activité de 10 mM de Ca^2+. Les moyennes ± erreurs standards de 2 à 5 manipulations indépendantes sont indiquées. Les expériences ont été réalisées en présence de 2 mM de Ca^2+.
(§1) L'accumulation d'inositols phosphates tritiés est exprimée en pourcentage du taux de base observé en présence de 2 mM Ca^2+ (100 %) dans les cellules CHO(WT*) ou CHO(CaSR).

The test system of the next experiment is cellules CHO(WT*). Description: Specificity control: [3H]IP accumulation in CHO(WT*) control cells transfected with the plasmid alone, not expressing CaSR. In kind it is cell-based, hamster chinois. As to conditions: compound 10 µM, basal level in presence of 2 mM Ca^2+ = 100 %; for activity at 10 µM: read-out: Accumulation d'(^3H)-IP % du taux basal. CHO (WT*). The protocol: Les molécules PHD, utilisées à une concentration de 10 µM ne conduisent pas ou peu à l'accumulation d'[^3H]IP dans des cellules CHO(WT*) témoins ce qui suggère leur spécificité d'action vis-à-vis du CaSR (Tableau 2). Les cellules CHO(WT*) ont été tranfectées avec le plasmide seul et n'expriment pas le CaSR.
as §1

[1] abbreviates: in presence of 2 mM Ca^2+, mean ± standard error of 2 to 5 independent experiments.

On to `C[C@@H](NCC(Cc1ccccc1)NS(=O)(=O)c1ccc([N+](=O)[O-])cc1)c1ccccc1` (single isomer, unassigned) [PHD 127 A], for which the activation at 10 µM on CaSR de rat (setting [1]) amounted to 12 ± 5%.
Regarding `C[C@@H](NCC(Cc1ccccc1)NS(=O)(=O)c1ccc([N+](=O)[O-])cc1)c1ccccc1` (single isomer, unassigned) [PHD 127 B], the “Accumulation d'(^3H)-IP % de la réponse 10mM Ca^2+ ± E.S.” value on CaSR de rat (setting [1]) is recorded as 13 ± 3%.
As for `CC(NCC(Cc1ccccc1)NS(=O)(=O)c1ccc([N+](=O)[O-])cc1)c1ccccc1` (centres unmarked) [PHD 87], the activation at 10 µM at CaSR de rat (setting [1]) is 8 ± 4%.
On to `CC(NCC(N)Cc1ccccc1)c1ccccc1` (centres unmarked) [PHD 90], for which the activation at 10 µM at CaSR de rat (setting [1]) was found to be 3 ± 2%.
Still for that read-out and setting: the value for `Cc1ccc(S(=O)(=O)NC(CNC(C)c2ccccc2)Cc2ccccc2)cc1` (centres unmarked) [PHD 121] was 23 ± 15%.
Still for that read-out and setting: the value for `CC(NCC(Cc1ccccc1)NS(=O)(=O)c1ccc([N+](=O)[O-])cc1)c1cccc2ccccc12` (centres unmarked) [PHD 124] was 27 ± 11%; that for `CC(NCC(Cc1ccccc1)NS(=O)(=O)c1ccc(N)cc1)c1ccccc1` (centres unmarked) [PHD 125] was 2 ± 4%.
On the same count and under the same terms, the value for `Cc1ccc(S(=O)(=O)NCC(NC(C)c2cccc3ccccc23)c2ccccc2)cc1` (centres unmarked) [PHD 176 A] was 6 ± 1%; that for `Cc1ccc(S(=O)(=O)NC(CNC(C)c2cccc3ccccc23)c2ccccc2)cc1` (centres unmarked) [PHD 176 B] was 31 ± 3%.
Consider `COc1cccc([C@@H](C)NC(CNS(=O)(=O)c2ccc(C)cc2)c2ccccc2)c1` (some centres unmarked) [PHD 178 A], for which, on CaSR de rat (setting [1]), the activation at 10 µM is 6 ± 6%.
As for `COc1cccc([C@@H](C)NCC(NS(=O)(=O)c2ccc(C)cc2)c2ccccc2)c1` (some centres unmarked) [PHD 178 B], at CaSR de rat (setting [1]), the activation at 10 µM is 22 ± 10%.
Consider `Cc1ccc(S(=O)(=O)NC(CNC(C)c2cccc3ccccc23)Cc2ccccc2)cc1` (centres unmarked) [PHD 181], for which the activation at 10 µM at CaSR de rat (setting [1]) was 68 ± 9%.
On the same count and under the same terms, with `COc1cccc([C@@H](C)NCC(Cc2ccccc2)NS(=O)(=O)c2ccc(C)cc2)c1` (some centres unmarked) [PHD 182] the figure was 36 ± 12%; with `CC(NCC(Cc1ccccc1)NS(=O)(=O)c1ccccc1)c1cccc2ccccc12` (centres unmarked) [PHD 202], 78 ± 10%.
On the same count and under the same terms, with `CC(NCC(Cc1ccccc1)NS(=O)(=O)c1ccc(Cl)cc1)c1cccc2ccccc12` (centres unmarked) [PHD 203] the figure was 38 ± 20%; with `COc1ccc(S(=O)(=O)NC(CNC(C)c2cccc3ccccc23)Cc2ccccc2)cc1` (centres unmarked) [PHD 206], 80 ± 12%; with `COc1ccc(S(=O)(=O)NC(CN[C@H](C)c2cccc(OC)c2)Cc2ccccc2)cc1` (some centres unmarked) [PHD 217], 34 ± 5%.
Still for that read-out and setting: with `COc1ccc(S(=O)(=O)NC(CCc2ccccc2)CNC(C)c2cccc3ccccc23)cc1` (centres unmarked) [PHD 218] the figure was 39 ± 1%.
In the case of `COc1ccc(S(=O)(=O)NC(CNC(C)c2cccc3ccccc23)Cc2ccccc2OC)cc1` (centres unmarked) [PHD 230], the activation at 10 µM on CaSR de rat (setting [1]) turned out to be 65 ± 2%.
The same measure, in the same setting: with `COc1ccc(S(=O)(=O)NC(CNC(C)c2cccc3ccccc23)Cc2cccc(C)c2OC)cc1` (centres unmarked) [PHD 235] the figure was 37 ± 5%.
Still for that read-out and setting: the value for `COc1ccc(S(=O)(=O)NC(CNC(C)c2cccc3ccccc23)Cc2ccccc2Cl)cc1` (centres unmarked) [PHD 242] was 60 ± 4%; that for `COc1ccc(CC(CNC(C)c2cccc3ccccc23)NS(=O)(=O)c2ccc(OC)cc2)cc1` (centres unmarked) [PHD 267] was 45 ± 1%.
Regarding `COc1ccc(S(=O)(=O)NC(CNC(C)c2cccc3ccccc23)Cc2ccc3c(c2)OCO3)cc1` (centres unmarked) [PHD 271], at CaSR de rat (setting [1]), the activation at 10 µM worked out at 47 ± 2%.
The same measure, in the same setting: the value for `COc1ccc(S(=O)(=O)NC(C)CNC(C)c2cccc3ccccc23)cc1` (centres unmarked) [PHD 280] was 30 ± 2%.
For the compound `CC(NCC(Cc1ccccc1)NCc1ccccc1)c1cccc2ccccc12` (centres unmarked) [PHD 285], at CaSR de rat (setting [1]), the activation at 10 µM was 80 ± 8%.
On the same count and under the same terms, the value for `COc1ccc(S(=O)(=O)NCCNC(C)c2cccc3ccccc23)cc1` (centres unmarked) [PHD 288] was 45 ± 3%.
`CC(NCC(Cc1ccccc1)NS(=O)(=O)c1ccccc1Cl)c1cccc2ccccc12` (centres unmarked) [PHD 301]: on CaSR de rat, the “Accumulation d'(^3H)-IP % du taux basal. CHO (CaSR)” value is reported as “une forte accumulation” and the activity at 10 µM came out at 304 ± 18%. Moreover, the activation at 10 µM at CaSR de rat (setting [1]) was 79 ± 10%. Also, in the experiment on cellules CHO(WT*), the “Accumulation d'(^3H)-IP % du taux basal. CHO (WT*)” value was “peu ou pas d'accumulation” and the activity at 10 µM came to 119 ± 6%.
Regarding `CC(NCC(Cc1ccccc1)NS(=O)(=O)c1ccc(C(F)(F)F)cc1)c1cccc2ccccc12` (centres unmarked) [PHD 304], on CaSR de rat (setting [1]), the activation at 10 µM is 29 ± 2%.
Consider `CC(NCC(Cc1ccccc1)NS(=O)(=O)c1ccccc1C(F)(F)F)c1cccc2ccccc12` (centres unmarked) [PHD 306], for which the activation at 10 µM at CaSR de rat (setting [1]) is 48 ± 9%.
In the case of `CC(NCC(Cc1ccccc1)NCc1ccccc1Cl)c1cccc2ccccc12` (centres unmarked) [PHD 307, N^2-(2-Chlorobenzyl)-N^1-[1-(1-naphtyl)éthyl]-3-phénylpropane-1,2-diamine], on CaSR de rat, the “Accumulation d'(^3H)-IP % du taux basal. CHO (CaSR)” value was “une forte accumulation” and the activity at 10 µM worked out at 393 ± 28%. Besides, on CaSR de rat (setting [1]), the activation at 10 µM came to 98 ± 8%. Moreover, in the experiment with cellules CHO(WT*), the “Accumulation d'(^3H)-IP % du taux basal. CHO (WT*)” value is “peu ou pas d'accumulation” and the activity at 10 µM came to 134 ± 11%.
With `CC(NCC(Cc1ccccc1)NS(=O)(=O)c1cccc(Cl)c1)c1cccc2ccccc12` (centres unmarked) [PHD 308], on CaSR de rat, the “Accumulation d'(^3H)-IP % du taux basal. CHO (CaSR)” value is reported as “une forte accumulation” and the activity at 10 µM was 314 ± 13%. Further, the activation at 10 µM at CaSR de rat (setting [1]) was found to be 83 ± 4%. In the experiment with cellules CHO(WT*), the “Accumulation d'(^3H)-IP % du taux basal. CHO (WT*)” value is on record as “peu ou pas d'accumulation” and the activity at 10 µM was found to be 124 ± 9%.
As to `CC(NCC(Cc1ccccc1)NS(=O)(=O)c1cccs1)c1cccc2ccccc12` (centres unmarked) [PHD 316], the activation at 10 µM at CaSR de rat (setting [1]) was 78 ± 1%.
The same measure, in the same setting: with `CC(NS(=O)(=O)c1ccc2ccccc2c1)c1cccc2ccccc12` (centres unmarked) [PHD 317] the figure was 29 ± 13%; with `CC(NCC(Cc1ccccc1)NS(=O)(=O)c1ccc2ccccc2c1)c1cccc2ccccc12` (centres unmarked) [PHD 318], 34 ± 2%; with `CC(NCC(Cc1ccccc1)NS(=O)(=O)c1cccc2ccccc12)c1cccc2ccccc12` (centres unmarked) [PHD 319], 31 ± 7%.
`CC(NCC(Cc1ccccc1)NCc1ccc(F)cc1)c1cccc2ccccc12` (centres unmarked) [PHD 320]: the activation at 10 µM at CaSR de rat (setting [1]) is 95 ± 4%.
With `CC(NCC(Cc1ccccc1)NS(C)(=O)=O)c1cccc2ccccc12` (centres unmarked) [PHD 322], at CaSR de rat (setting [1]), the activation at 10 µM is 57 ± 6%.
For `CC(NCC(Cc1ccccc1)NCc1ccccc1F)c1cccc2ccccc12` (centres unmarked) [PHD 323], the activation at 10 µM at CaSR de rat (setting [1]) turned out to be 90 ± 8%.
